Measured values from ChEMBL document CHEMBL5727726, “Pyridine sulfonamides” (2020).

Assay: Nav 1.7In Vitro PX Assay: HEK 293 cells stably transfected with human Nav1.7 were recorded in whole cell voltage clamp mode with the PatchXpress automated electrophysiology system (Molecular Devices, LLC, Sunnyvale, Calif.). Compound effects were measured on a partially inactivated state of the sodium channel. Cells were clamped to a holding potential yielding 20 to 50% inactivation. To elicit sodium current, channels were activated by pulsing to −10 mV for 20 msec. This voltage protocol was repeated at a rate of 0.1 Hz throughout the experiment. A single concentration of test compound was applied to cells for a duration of 3 minutes. Peak sodium current was measured at the end of the compound addition period to determine percent inhibition. Three to five cells were tested per concentration, and IC50 curves were fitted to percent inhibition as a function of concentration.
Settings: HEK293

| IC50 [µM] | Compound |
| --- | --- |
| 0.028 | CNC(=O)N(c1ccc(S(=O)(=O)Nc2ccon2)cn1)c1cc(Cl)c(-c2cc(F)cc(Cl)c2)cc1OC |
| 0.086 | CNC(=O)N(c1ccc(S(=O)(=O)Nc2ccon2)cn1)c1cc(F)c(-c2cc(F)c(F)c(F)c2)cc1OC |
